Data as given in publication PMC7772889, “Integrating biokinetics and in vitro studies to evaluate developmental neurotoxicity induced by chlorpyrifos in human iPSC-derived neural stem cells undergoing differentiation towards neuronal and glial cells” (Reproductive Toxicology (Elmsford, N.y.), 2020).

Experiments:
[1] = cited from earlier work
Adsorption to plastic = format: in vitro ADME
Procedure: Since CPF is a lipophilic chemical, its potential adsorption to the plastic wells was evaluated during the kinetic experiments. At the end of each experiment, the content (cells and medium) of each sample well was removed. Wells were washed twice with PBS, to remove possible cellular debris and 3 mL methanol (MeOH) were added. The plate was sealed with Parafilm and kept under gentle shaking at room temperature for 2h, before transferring the complete volume into amber glass vials with screw caps. The fractions were stored at −80 °C until HPLC analysis.

[2] = Cross-contamination among wells; format: physicochemical
Procedure: In the adjacent wells to those containing CPF, at the applied concentrations, a corresponding amount of DMSO (vehicle control) was added. At the end of the experiment, the content of these control wells was stored at −80 °C until HPLC analysis. The CPF content in control wells served as an indication of possible contamination across wells, due to CPF evaporation.

BDNF protein = BDNF protein levels by immunocytochemistry and HCI; format: cell-based, human; details: 14 days of CPF treatment, dose-dependent, vs solvent control
Procedure: (§1) After 14 days of treatment with CPF at the nominal concentrations of 18.45, 21.21, 24.39, 28.05, 32.26, and 37.10 μM (37.10 μM equal to IC20), obtained considering a 1-to-1.15 dilution factor, cells were fixed with 4 % formaldehyde for 10 min and washed three times in PBS 1 × . After 15 min permeabilization with PBS 1X containing 0.1 % Triton-X-100 and 3,5 % bovine serum albumin (BSA), cells were further incubated with 3,5 % BSA and 1X PBS (blocking solution) for 15 min, to prevent nonspecific binding of antibodies, and then incubated at 4 °C overnight with primary antibodies in blocking solution. […] Neurite outgrowth and BDNF protein levels were assessed by staining the cells with an antibody specific for β-III-tubulin (mouse, 1:500, ThermoFisher), and one for BDNF (rabbit, 1:70, ThermoFisher). […] Mean fluorescence intensity and the relative percentages of immunocytochemically-defined cell types were quantified using the ArrayScan™ XTI High Content Platform (Cellomics) (ThermoFisher) and the ArrayScan algorithm 'Neuronal Profiling V4.1', as previously described. […] Other masks were applied to identify the neurites, their branch points, and the fluorescence intensity levels of SYP and PSD95 puncta, or BDNF protein. […]

[3] = test system: hiPSC-derived NSCs undergoing differentiation; assay: Synaptogenesis by immunocytochemistry and HCI (overlapping SYP+/PSD95+ puncta); format: cell-based, human; details: 14 days, concentrations ≤ IC20
Procedure: as §1

CCOP(=S)(OCC)Oc1nc(Cl)c(Cl)cc1Cl [CPF, Chlorpyrifos]
vapour pressure ([1]; at 25 °C): 2.02 × 10^−5 mm Hg
log Kow, octanol/water partition coefficient [1]: 4.96
Bound-to-plastic fraction (Adsorption to plastic; first day of treatment): 0−8.4%
Bound-to-plastic fraction (Adsorption to plastic; last day of treatment): 7.5−16.5%
Cross-contamination among wells ([2]; first day of treatment): Not detectable
Cross-contamination among wells ([2]; last day of treatment): Not detectable
increase of BDNF protein levels (BDNF protein): ≤ 55%
number of synapses (co-localization of SYP+/PSD95+ puncta) [3]: remarkable dose-dependent decrease
